{"source": "paper PMC9986306", "about": "“Beyond CBD: Inhibitory effects of lesser studied phytocannabinoids on human voltage-gated sodium channels” (Frontiers in Physiology, 2023)", "key": {"[1]": {"target": "T1, human NaV1.1 channel (SCN1A, HEK293T cells) (Homo sapiens, UniProt P35498)", "T1 construct": "expressed in transfected cells", "assay": "Planar patch-clamp, inhibition of peak sodium current (IC50 protocol)", "format": "cell-based", "details": "NaV1.1; 0.1–100 μM, no maximal inhibition at 100 µM", "procedure": "(§1) HEK293T cells stably expressing SCN1A or SCN2A and CHO cells stably expressing SCN8A or SCN9A were maintained as previously described ([Richards et al., 2018]; [Milligan et al., 2022]).\n(§2) Patch-clamp recordings were made using a Patchliner® (Nanion Technologies, Munich, Germany) in the whole-cell configuration as previously described ([Richards et al., 2018]; [Milligan et al., 2022]). Briefly, cells were prepared in suspension at a density of 1 × 10^6-5 × 10^7 cells/mL. The external recording solution comprised (in mM): 140 NaCl, 4 KCl, 1 MgCl2, 2 CaCl2, 5 D-glucose, 10 HEPES, pH 7.4 with NaOH, ∼295 mOsm. The internal recording solution comprised (in mM): 50 CsCl, 60 CsF, 10 NaCl, 20 EGTA, 10 HEPES, pH 7.2 with CsOH, ∼285 mOsm. Medium single-hole planar NPC-16 chips with an average resistance of ∼2.5 MΩ were used. Chip and whole-cell capacitance were fully compensated, and 50% series resistance compensation applied. Recordings were acquired at 50 kHz with the low pass filter set to 10 kHz in PATCHMASTER (HEKA Instruments, NY, United States) and performed at 27°C. Offline analysis was performed using Microsoft Excel, MatLab R2019a (MathWorks) and GraphPad Prism 8 (Molecular Devices).\n(§3) To determine half-maximal inhibitory concentrations (IC50), cells were held at −80 mV, stepped to −120 mV for 200 ms followed by 50 ms test depolarization to 0 mV every 2 s for 30 s in the presence of vehicle control (DMSO). The cells were then exposed to an individual phytocannabinoid (CBD, CBGA, CBDVA, CBG, CBCA or CBC) at concentrations between 0.1 and 100 μM, sequentially for 5 min. Currents for individual cells were averaged over 24 s periods directly before application and following a 5 min exposure of compound. Leak subtraction was applied before normalization of current amplitude. Normalized mean data were fit to the Hill equation."}, "[2]": {"target": "T2, human NaV1.2 channel (SCN2A, HEK293T cells) (Homo sapiens, UniProt Q99250)", "T2 construct": "expressed in transfected cells", "T2 sequence (Q99250 whole entry)": "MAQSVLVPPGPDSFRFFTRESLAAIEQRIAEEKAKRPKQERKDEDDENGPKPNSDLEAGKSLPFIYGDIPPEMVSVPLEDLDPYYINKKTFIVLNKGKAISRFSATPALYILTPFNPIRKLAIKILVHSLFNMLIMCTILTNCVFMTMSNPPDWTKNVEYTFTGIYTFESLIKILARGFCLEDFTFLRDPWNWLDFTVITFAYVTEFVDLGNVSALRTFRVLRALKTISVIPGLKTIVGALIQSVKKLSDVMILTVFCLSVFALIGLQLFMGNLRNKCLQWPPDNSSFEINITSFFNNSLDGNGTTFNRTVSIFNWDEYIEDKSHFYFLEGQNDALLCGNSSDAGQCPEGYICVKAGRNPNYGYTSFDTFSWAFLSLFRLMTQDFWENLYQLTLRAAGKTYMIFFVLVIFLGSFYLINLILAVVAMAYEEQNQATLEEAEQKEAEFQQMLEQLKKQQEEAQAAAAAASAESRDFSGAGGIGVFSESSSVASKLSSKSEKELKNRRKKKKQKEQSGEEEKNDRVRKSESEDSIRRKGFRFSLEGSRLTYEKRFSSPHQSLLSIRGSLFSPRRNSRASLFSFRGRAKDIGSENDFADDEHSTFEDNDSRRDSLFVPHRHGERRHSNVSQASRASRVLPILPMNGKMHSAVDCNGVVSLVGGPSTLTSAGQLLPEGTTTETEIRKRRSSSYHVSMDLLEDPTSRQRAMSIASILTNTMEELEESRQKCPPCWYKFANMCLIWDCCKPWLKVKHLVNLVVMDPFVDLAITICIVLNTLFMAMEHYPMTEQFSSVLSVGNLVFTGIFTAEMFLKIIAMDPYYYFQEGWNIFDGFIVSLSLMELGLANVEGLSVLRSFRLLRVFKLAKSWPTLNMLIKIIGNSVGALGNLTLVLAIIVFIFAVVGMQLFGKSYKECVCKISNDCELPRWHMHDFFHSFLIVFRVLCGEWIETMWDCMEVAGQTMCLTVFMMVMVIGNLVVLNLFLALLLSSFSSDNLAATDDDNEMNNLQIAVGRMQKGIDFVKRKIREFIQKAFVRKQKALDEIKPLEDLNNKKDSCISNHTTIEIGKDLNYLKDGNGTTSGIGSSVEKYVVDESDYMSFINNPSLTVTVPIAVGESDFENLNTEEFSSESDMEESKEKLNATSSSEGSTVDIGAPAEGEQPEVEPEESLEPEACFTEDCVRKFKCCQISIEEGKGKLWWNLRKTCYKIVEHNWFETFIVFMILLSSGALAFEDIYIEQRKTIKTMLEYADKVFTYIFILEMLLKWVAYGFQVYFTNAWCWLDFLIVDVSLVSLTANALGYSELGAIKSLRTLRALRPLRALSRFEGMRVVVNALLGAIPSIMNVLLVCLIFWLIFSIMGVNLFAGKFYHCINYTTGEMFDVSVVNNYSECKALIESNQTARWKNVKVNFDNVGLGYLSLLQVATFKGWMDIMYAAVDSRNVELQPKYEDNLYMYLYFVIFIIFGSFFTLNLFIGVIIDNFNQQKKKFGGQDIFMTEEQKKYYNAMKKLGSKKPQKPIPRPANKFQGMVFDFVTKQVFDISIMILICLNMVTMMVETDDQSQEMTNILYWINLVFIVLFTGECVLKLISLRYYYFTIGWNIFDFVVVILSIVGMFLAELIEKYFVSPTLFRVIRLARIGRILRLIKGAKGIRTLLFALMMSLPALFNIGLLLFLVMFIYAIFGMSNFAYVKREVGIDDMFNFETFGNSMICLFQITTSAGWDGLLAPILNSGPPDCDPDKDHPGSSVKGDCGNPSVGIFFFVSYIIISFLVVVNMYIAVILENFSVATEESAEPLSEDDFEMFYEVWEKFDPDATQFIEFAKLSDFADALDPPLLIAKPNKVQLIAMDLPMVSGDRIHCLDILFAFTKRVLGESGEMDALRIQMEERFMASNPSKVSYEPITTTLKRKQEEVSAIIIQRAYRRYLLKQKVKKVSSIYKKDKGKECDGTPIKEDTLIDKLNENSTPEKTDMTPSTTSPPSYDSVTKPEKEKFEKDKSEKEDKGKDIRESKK", "assay": "Planar patch-clamp, inhibition of peak sodium current (IC50 protocol)", "format": "cell-based", "details": "for Effect on peak sodium current (in words): NaV1.2, 0.1–100 μM, no maximal inhibition at 100 µM", "procedure": "as §1, §2, §3"}, "[3]": {"target": "T3, human NaV1.6 channel (SCN8A, CHO cells) (Homo sapiens, UniProt Q9UQD0)", "T3 construct": "expressed in transfected cells", "assay": "Planar patch-clamp, inhibition of peak sodium current (IC50 protocol)", "format": "cell-based", "details": "for Effect on peak sodium current (in words): NaV1.6, 0.1–100 μM, no maximal inhibition at 100 µM", "procedure": "as §1, §2, §3"}, "[4]": {"target": "T4, human NaV1.7 channel (SCN9A, CHO cells) (Homo sapiens, UniProt Q15858)", "T4 construct": "expressed in transfected cells", "T4 sequence (Q15858 whole entry)": "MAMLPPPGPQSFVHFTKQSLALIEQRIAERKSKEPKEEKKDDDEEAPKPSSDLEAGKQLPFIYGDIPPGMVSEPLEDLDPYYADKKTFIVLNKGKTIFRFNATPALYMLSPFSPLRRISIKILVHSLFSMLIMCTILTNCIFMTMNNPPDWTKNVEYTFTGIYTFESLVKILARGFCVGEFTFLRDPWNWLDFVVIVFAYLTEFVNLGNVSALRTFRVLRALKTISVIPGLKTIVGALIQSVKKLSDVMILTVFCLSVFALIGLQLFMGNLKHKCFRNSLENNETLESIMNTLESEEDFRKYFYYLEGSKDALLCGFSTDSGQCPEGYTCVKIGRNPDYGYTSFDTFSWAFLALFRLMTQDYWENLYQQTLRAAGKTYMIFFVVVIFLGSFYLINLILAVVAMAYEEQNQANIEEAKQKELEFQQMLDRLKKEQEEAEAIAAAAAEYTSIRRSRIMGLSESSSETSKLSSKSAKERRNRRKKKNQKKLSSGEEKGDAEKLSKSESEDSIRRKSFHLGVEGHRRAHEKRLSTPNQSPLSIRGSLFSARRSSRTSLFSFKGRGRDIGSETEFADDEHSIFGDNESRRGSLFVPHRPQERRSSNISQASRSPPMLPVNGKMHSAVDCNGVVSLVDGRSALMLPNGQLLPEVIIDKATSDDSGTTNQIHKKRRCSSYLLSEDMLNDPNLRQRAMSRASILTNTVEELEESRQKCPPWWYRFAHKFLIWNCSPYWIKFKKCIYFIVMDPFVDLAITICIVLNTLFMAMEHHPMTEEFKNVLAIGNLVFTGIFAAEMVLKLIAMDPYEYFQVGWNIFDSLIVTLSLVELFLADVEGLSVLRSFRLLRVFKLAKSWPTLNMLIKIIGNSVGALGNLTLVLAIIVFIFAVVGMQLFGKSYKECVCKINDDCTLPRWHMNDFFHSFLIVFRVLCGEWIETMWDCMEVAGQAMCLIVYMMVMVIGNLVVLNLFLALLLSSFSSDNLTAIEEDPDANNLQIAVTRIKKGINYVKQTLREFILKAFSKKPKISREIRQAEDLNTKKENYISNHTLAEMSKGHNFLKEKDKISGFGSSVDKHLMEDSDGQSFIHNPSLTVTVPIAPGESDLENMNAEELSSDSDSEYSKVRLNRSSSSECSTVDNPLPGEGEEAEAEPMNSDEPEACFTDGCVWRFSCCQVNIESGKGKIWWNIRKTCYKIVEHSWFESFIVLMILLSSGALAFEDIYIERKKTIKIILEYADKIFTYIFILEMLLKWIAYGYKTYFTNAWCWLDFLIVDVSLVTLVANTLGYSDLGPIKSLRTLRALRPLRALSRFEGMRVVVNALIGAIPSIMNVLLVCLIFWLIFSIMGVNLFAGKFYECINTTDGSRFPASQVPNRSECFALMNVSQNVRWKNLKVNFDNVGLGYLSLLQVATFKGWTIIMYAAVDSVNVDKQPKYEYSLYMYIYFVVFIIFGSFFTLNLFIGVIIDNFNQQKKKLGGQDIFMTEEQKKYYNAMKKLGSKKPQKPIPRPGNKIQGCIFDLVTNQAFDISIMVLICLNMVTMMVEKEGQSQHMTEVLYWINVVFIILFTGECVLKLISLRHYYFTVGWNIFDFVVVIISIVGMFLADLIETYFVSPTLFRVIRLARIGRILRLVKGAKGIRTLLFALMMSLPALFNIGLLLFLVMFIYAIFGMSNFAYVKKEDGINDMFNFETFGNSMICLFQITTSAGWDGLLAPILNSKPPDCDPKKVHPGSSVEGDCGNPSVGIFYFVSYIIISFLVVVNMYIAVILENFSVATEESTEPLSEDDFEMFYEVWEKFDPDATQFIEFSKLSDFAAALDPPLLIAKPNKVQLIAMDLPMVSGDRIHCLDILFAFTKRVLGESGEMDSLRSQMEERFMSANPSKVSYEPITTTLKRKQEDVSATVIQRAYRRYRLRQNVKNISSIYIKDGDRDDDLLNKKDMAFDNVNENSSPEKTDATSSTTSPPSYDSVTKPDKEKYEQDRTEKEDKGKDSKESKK", "assay": "Planar patch-clamp, inhibition of peak sodium current (IC50 protocol)", "format": "cell-based", "details": "for Effect on peak sodium current (in words): NaV1.7, 0.1–100 μM, no maximal inhibition at 100 µM", "procedure": "as §1, §2, §3"}, "[5]": {"tested_on": "Scn1a+/− mouse model of DS", "set-up": "method as in Anderson et al., 2021a; Anderson et al., 2021b", "details": "Scn1a+/− mice, ref Anderson et al., 2021a, 2021b; cited from earlier work"}, "[6]": {"tested_on": "electrically induced seizure model", "set-up": "method as in Davis and Hatoum, 1983", "details": "ref Davis and Hatoum, 1983; cited from earlier work"}, "[7]": {"target": "T1, human NaV1.1 channel (SCN1A, HEK293T cells)", "assay": "Planar patch-clamp, biophysical properties (activation, SSFI, recovery from SSFI)", "format": "cell-based", "details": "change vs vehicle DMSO at IC50 concentration (CBD 18.5 μM, CBGA 13.6 μM, CBDVA 50 μM)", "procedure": "as §1, §2\n(§4) Voltage protocols were used, as previously described ([Richards et al., 2018]). Briefly, to study the voltage-dependence of activation, cells were held at −120 mV and depolarized to test potentials, in 5 mV increments, between −120 mV and +50 mV for 100 ms. To study steady-state fast inactivation, cells were held at conditioning pre-pulse potentials ranging from −120 mV to +30 mV in 5 mV increments from a holding potential of −120 mV and a test pulse at 5 mV for 20 ms. Recovery from fast inactivation was studied by pre-pulsing the cells to 0 mV from a holding potential of −120 mV for 50 ms, to fully inactivate channels. The voltage was then stepped back to the holding potential for variable interpulse intervals (ipi from 0 to 39 ms in 3 ms increments). To test channel availability, the voltage was stepped to 0 mV for 50 ms.\n(§5) To examine the voltage-dependence of activation, normalized current-voltage (I-V) relationships were converted to conductance (G) using the following equation: G = I/(V−V r ) where Vr is the reversal potential for Na^+. The voltage-dependence of conductance and availability were normalized and fitted to a Boltzmann equation: G = 1/(1 + exp [(V−V 0.5)/a]), where a is the slope of the half-maximum, V is the potential of the given pulse, and V 0.5 is the potential for the half-maximal activation/inactivation. The time course of inactivation was fitted to a single exponential function I/Imax = I0+A*exp (-t-t0/τ)+C, where I0 is the non-inactivating component, Imax is the peak current, t is time, and A is the component for the time constant τ. Time constants were plotted against voltage and the data fitted with a decaying exponential equation Y = span*exp (−K*x)+plateau, where span is the starting point of the curve, K is the decay factor, plateau is the value the curve decays to, and x is time. To measure recovery from inactivation, normalized currents were plotted against ipi and data fitted with equation I/I max = 1-exp/(rc + x), where I max is maximal current; rc recovery rate constant; x is time. Peak current (I) was plotted as fractional recovery against the recovery period by normalizing to the maximum current (Imax) during the conditioning potentials."}, "[8]": {"target": "T2, human NaV1.2 channel (SCN2A, HEK293T cells)", "assay": "Planar patch-clamp, biophysical properties (activation, SSFI, recovery from SSFI)", "format": "cell-based", "details": "change vs vehicle DMSO at IC50 concentration (CBD 18.4 μM, CBGA 14.7 μM, CBDVA 60 μM)", "procedure": "as §1, §2, §4, §5"}, "[9]": {"target": "T3, human NaV1.6 channel (SCN8A, CHO cells)", "assay": "Planar patch-clamp, biophysical properties (activation, SSFI, recovery from SSFI)", "format": "cell-based", "details": "change vs vehicle DMSO at IC50 concentration (CBD 16.6 μM, CBGA 12.0 μM, CBDVA 24.1 μM)", "procedure": "as §1, §2, §4, §5"}, "[10]": {"target": "T4, human NaV1.7 channel (SCN9A, CHO cells)", "assay": "Planar patch-clamp, biophysical properties (activation, SSFI, recovery from SSFI)", "format": "cell-based", "details": "change vs vehicle DMSO at IC50 concentration (CBD 11.9 μM, CBGA 16.4 μM, CBDVA 60 μM)", "procedure": "as §1, §2, §4, §5"}, "[11]": {"set-up": "method as in Anderson et al., 2019b", "details": "CBDVA; ref Anderson et al., 2019b; cited from earlier work"}, "sodium channels": {"tested_on": "sodium channels", "set-up": "method as in Hill et al., 2014; Ghovanloo et al., 2022", "details": "different voltage protocols or model systems; ref Hill et al., 2014; Ghovanloo et al., 2022; read-out: IC50 (low affinity inhibitor of sodium channels); cited from earlier work"}, "[12]": {"tested_on": "PTZ-induced acute seizure model", "set-up": "method as in Hill et al., 2014", "details": "ref Hill et al., 2014; cited from earlier work"}}, "note": "Marks after values point to notes of the source that are not given here."}
{"smiles": "CCCCCc1cc(O)c2c(c1)OC(C)(CCC=C(C)C)C=C2", "note": "(centres unmarked) [CBC, cannabichromene]", "values": [{"measurement": "Effect on peak sodium current (in words)", "setting": "[1]", "value": "modestly inhibited"}, {"measurement": "Effect on peak sodium current (in words)", "setting": "[2]", "value": "modestly inhibited"}, {"measurement": "Effect on peak sodium current (in words)", "setting": "[3]", "value": "modestly inhibited"}, {"measurement": "Effect on peak sodium current (in words)", "setting": "[4]", "value": "modestly inhibited"}, {"measurement": "Effect against hyperthermia-induced seizures", "setting": "[5]", "value": "anti-convulsant properties"}, {"measurement": "Effect in electrically induced seizure model", "setting": "[6]", "value": "ineffective"}]}
{"smiles": "CCCCCc1cc2c(c(O)c1C(=O)O)C=CC(C)(CCC=C(C)C)O2", "note": "(centres unmarked) [CBCA, cannabichromenic acid]", "values": [{"measurement": "Effect on peak sodium current (in words)", "setting": "[1]", "value": "modestly inhibited"}, {"measurement": "Effect on peak sodium current (in words)", "setting": "[2]", "value": "modestly inhibited"}, {"measurement": "Effect on peak sodium current (in words)", "setting": "[3]", "value": "modestly inhibited"}, {"measurement": "Effect on peak sodium current (in words)", "setting": "[4]", "value": "modestly inhibited"}, {"measurement": "Effect against hyperthermia-induced seizures", "setting": "[5]", "value": "anti-convulsant properties"}]}
{"smiles": "C=C(C)[C@@H]1CCC(C)=C[C@H]1c1c(O)cc(CCC)c(C(=O)O)c1O", "note": "[CBDVA, cannabidivarinic acid]", "values": [{"measurement": "Effect on peak sodium current (in words)", "setting": "[1]", "value": "only partially inhibited"}, {"measurement": "Effect on peak sodium current (in words)", "setting": "[2]", "value": "only partially inhibited"}, {"measurement": "IC50", "setting": "[2]; NaV1.2 peak current, 0.1–100 µM, 5 min exposure, mean ± SEM", "value": "≥ 60", "unit": "µM"}, {"measurement": "Slope (Hill slope coefficient)", "setting": "[3]; NaV1.6 concentration-response, mean ± SEM", "value": "2.1 ± 0.5"}, {"measurement": "IC50", "setting": "[3]; NaV1.6 peak current, 0.1–100 µM, 5 min exposure, mean ± SEM", "value": "24.1 ± 1.2", "unit": "µM"}, {"measurement": "Effect on peak sodium current (in words)", "setting": "[4]", "value": "only partially inhibited"}, {"measurement": "IC50", "setting": "[4]; NaV1.7 peak current, 0.1–100 µM, 5 min exposure, mean ± SEM", "value": "≥ 60", "unit": "µM"}, {"measurement": "Inactivation △ V0.5 inact", "setting": "[7]; SSFI", "value": "−10.1 ± 2.3** mV"}, {"measurement": "Inactivation △ slope factor", "setting": "[7]; SSFI", "value": "1.8 ± 0.3***"}, {"measurement": "Activation △ Slope factor", "setting": "[7]", "value": "1.7 ± 0.4***"}, {"measurement": "Activation △ V0.5 act", "setting": "[7]", "value": "13.0 ± 1.6**** mV"}, {"measurement": "Inactivation △ τinact SSFI at 5 mV", "setting": "[7]", "value": "0.4 ± 0.05****"}, {"measurement": "Inactivation △ V0.5 inact", "setting": "[8]; SSFI", "value": "−2.3 ± 1.5", "unit": "mV"}, {"measurement": "Inactivation △ slope factor", "setting": "[8]; SSFI", "value": "1.0 ± 0.2***"}, {"measurement": "Activation △ Slope factor", "setting": "[8]", "value": "0.9 ± 0.2****"}, {"measurement": "Activation △ V0.5 act", "setting": "[8]", "value": "11.5 ± 1.5**** mV"}, {"measurement": "Inactivation △ τinact SSFI at 5 mV", "setting": "[8]", "value": "0.4 ± 0.06****"}, {"measurement": "Inactivation △ V0.5 inact", "setting": "[9]; SSFI", "value": "−3.0 ± 1.3* mV"}, {"measurement": "Inactivation △ slope factor", "setting": "[9]; SSFI", "value": "0.5 ± 0.3"}, {"measurement": "Activation △ Slope factor", "setting": "[9]", "value": "1.9 ± 0.7*"}, {"measurement": "Activation △ V0.5 act", "setting": "[9]", "value": "10.4 ± 2.9** mV"}, {"measurement": "Inactivation △ τinact SSFI at 5 mV", "setting": "[9]", "value": "0.3 ± 0.09**"}, {"measurement": "Inactivation △ V0.5 inact", "setting": "[10]; SSFI", "value": "−4.1 ± 0.9*** mV"}, {"measurement": "Inactivation △ slope factor", "setting": "[10]; SSFI", "value": "1.6 ± 0.3****"}, {"measurement": "Activation △ Slope factor", "setting": "[10]", "value": "0.9 ± 0.2***"}, {"measurement": "Activation △ V0.5 act", "setting": "[10]", "value": "8.7 ± 1.8*** mV"}, {"measurement": "Inactivation △ τinact SSFI at 5 mV", "setting": "[10]", "value": "0.3 ± 0.07**"}, {"measurement": "Estimated brain concentration attained at anti-convulsant doses", "setting": "[11]", "value": 5.5, "unit": "µM"}, {"measurement": "Effect against hyperthermia-induced seizures", "setting": "[5]", "value": "anti-convulsant properties"}]}
{"smiles": "CCCCCc1cc(O)c(C/C=C(\\C)CCC=C(C)C)c(O)c1", "note": "[CBG, cannabigerol]", "values": [{"measurement": "Effect on peak sodium current (in words)", "setting": "[1]", "value": "modestly inhibited"}, {"measurement": "Effect on peak sodium current (in words)", "setting": "[2]", "value": "modestly inhibited"}, {"measurement": "Effect on peak sodium current (in words)", "setting": "[3]", "value": "modestly inhibited"}, {"measurement": "Effect on peak sodium current (in words)", "setting": "[4]", "value": "modestly inhibited"}, {"measurement": "IC50", "setting": "sodium channels", "value": "2 to 22", "unit": "µM"}, {"measurement": "Effect against hyperthermia-induced seizures", "setting": "[5]", "value": "ineffective"}, {"measurement": "Anti-convulsant effect in PTZ-induced acute seizure model", "setting": "[12]", "value": "ineffective"}]}
